Reference: patent US20220402867A1, “SULFO-SUBSTITUTED BIARYL COMPOUND OR SALT THEREOF, PREPARATION METHOD THEREFOR, AND USE THEREOF” (Shanghai Litedd Co., Ltd., priority 2019, published 2022)

Experiments:
[1] = Metabolic stability in human liver microsomes; assay type: in vitro ADME; details: for microsomal CLint: 0.5 mg protein/mL
Procedure, shortened: (§1)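 Compound incubated at 37 °C with 0.5 mg protein/mL liver microsomes plus cofactors in PBS, sampled at 0–60 min, quenched with cold acetonitrile and quantified by HPLC-MS/MS (n=3). Half-life and Clint (μL/min/mg) come from the slope of ln(% remaining) versus time.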

[2] = Metabolic stability in mouse liver microsomes; assay type: in vitro ADME, CD-1 mice; details: for half-life: CD-1; for microsomal CLint: CD-1, 0.5 mg protein/mL
Procedure, shortened: as §1

[3] = test system: human PBMC (Th17 cells); experiment: Th17 differentiation and IL-17 secretion in human PBMC; assay type: cell-based; details: IL-17 ELISA after 48 hours; for Emax: maximum activation rate
Protocol: Test procedure: PBMC cells were first thawed and plated, and then stimulated with stimulating factors (anti-hCD28: 5 μg/mL; rhTGF-β1: 5 ng/mL; rhIL-6: 20 ng/mL; rhIL-23: 10 ng/Ml) to differentiate to Th17, while adding different concentrations of compounds. All test compounds were serially diluted at 3-fold dilution with DMSO, with 8 serial dilutions starting from the maximum concentration 3 μM. The supermatants were collected after 48 hours for IL-17 ELISA detection, and compared with the solvent group, to determine the activation rate of the compounds on Th17 cells to secrete IL-17. EC50 values were fitted with Graphad8.0, and the TOP values fitted by the software was Emax %.

[4] = target: T1, GST-RORγ LBD (263-509) (Homo sapiens, UniProt P51449); experiment: TR-FRET assay of agonistic activity on RORγ receptor; assay type: biochemical; details: for EC50: TR-FRET, GST-RORγ LBD with Biotin-SRC1
T1 construct: GST-RORγ LBD ((263-509) (produced at ChemPartner))
T1 sequence (P51449 263-509): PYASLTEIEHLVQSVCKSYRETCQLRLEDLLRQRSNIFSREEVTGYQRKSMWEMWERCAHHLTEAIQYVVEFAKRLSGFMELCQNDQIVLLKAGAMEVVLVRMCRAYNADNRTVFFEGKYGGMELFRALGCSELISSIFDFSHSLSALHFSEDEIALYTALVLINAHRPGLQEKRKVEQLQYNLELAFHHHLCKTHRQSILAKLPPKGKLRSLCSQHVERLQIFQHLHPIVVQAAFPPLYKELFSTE
Procedure, shortened: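 GST-RORγ LBD (75 nM solution) mixed 1:1 with Biotin-SRC1 (4 nM solution), then with Eu anti-GST and SA-APC; compounds in 10-point 3-fold series from 10 mM stock, duplicate.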

[5] = target: T2, RORγt (RORγ-LBD chimeric receptor) (Homo sapiens, UniProt P51449); experiment: Luciferase reporter gene assay of RORγt agonistic activity in HEK293T cells; assay type: cell-based; parameters: Emax: dose or concentration left out as unconfirmed; details: for EC50: HEK293T, GAL4 luciferase reporter, read-out: EC50; for Emax: HEK-293T
T2 construct: host or cells: HEK293T
T2 sequence (P51449 269-508 limits assumed): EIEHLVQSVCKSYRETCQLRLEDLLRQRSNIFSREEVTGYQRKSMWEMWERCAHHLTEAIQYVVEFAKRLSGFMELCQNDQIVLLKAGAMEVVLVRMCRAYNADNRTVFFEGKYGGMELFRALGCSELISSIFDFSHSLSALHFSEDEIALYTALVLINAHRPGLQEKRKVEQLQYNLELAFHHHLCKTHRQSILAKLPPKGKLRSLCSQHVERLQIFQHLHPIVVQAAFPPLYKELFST
Procedure, shortened: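 EC50 derived from % activity (relative to positive control and vehicle) versus log concentration, using luciferase luminescence in transfected HEK293T cells. The cells carried a RORγ-LBD/GAL4 chimera plus a GAL4-promoter reporter; compounds were 3-fold serially diluted, 10 points from a 10 mM DMSO stock.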

[6] = Pharmacokinetic (PK) assay in mice; assay type: in vivo; details: CD-1 mice
Procedure, shortened: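 Plasma concentrations were quantified by UPLC-MS/MS in EDTA-K2 plasma collected from the saphenous vein over 0–24 h, and PK parameters were derived from them. Two groups of 3 CD-1 mice were used: 5 mg/kg oral gavage (DMSO/1% methylcellulose 1:99) and 1 mg/kg intravenous (5% DMSO/40% PEG400/55% (20% 3-CD)).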

[7] = maximum activation rate, TOP of fitted curve

Compound: COCC(C(=O)Nc1cc(Cl)c(-c2ccc(S(=O)(=O)C3CC3)cc2)c(Cl)c1)c1ccc(S(C)(=O)=O)cc1 (single isomer, unassigned) [Example 34, (S)—N-(2,6-dichloro-4′-(cyclopropylsulfonyl)-[1,1′-biphenyl]-4-yl)-3-methoxy-2-(4-(methylsulfonyl)phenyl)propanamide or (R)—N-(2,6-dichloro-4′-(cyclopropylsulfonyl)-[1,1′-biphenyl]-4-yl)-3-methoxy-2-(4-(methylsulfonyl)phenyl)propanamide]
- half-life [1]: 1.48 h
- microsomal CLint [1]: 15.6 µL/min/mg
- % Remaining (T = 60 min) [1]: 62.4%
- % Remaining (T = 60 min) [2]: 74.5%
- half-life [2]: > 2.42 h
- microsomal CLint [2]: < 9.6 µL/min/mg
- EC50 [3]: 0.0572 µM
- Emax [3]: 195%
- EC50 [4]: 0.0051 µM
- Emax [4, 7]: 191%
- EC50 [5]: 0.067 µM
- Emax [5]: 70.7%

Compound: CS(=O)(=O)c1ccc(C(CO)C(=O)Nc2cc(Cl)c(-c3ccc(S(=O)(=O)C4CC4)cc3)c(Cl)c2)cc1 (single isomer, unassigned) [Example 36, (S)—N-(2,6-Dichloro-4′-(cyclopropylsulfonyl)-[1,1′-biphenyl]-4-yl)-2-(4-(methylsulfonyl)phenyl)-3-hydroxypropionamide or (R)—N-(2,6-dichloro-4′-(cyclopropylsulfonyl)-[1,1′-biphenyl]-4-yl)-2-(4-(methylsulfonyl)phenyl)-3-hydroxypropionamide]
- half-life [1]: 1.69 h
- microsomal CLint [1]: 13.7 µL/min/mg
- % Remaining (T = 60 min) [1]: 62.3%
- % Remaining (T = 60 min) [2]: 83.9%
- half-life [2]: > 2.42 h
- microsomal CLint [2]: < 9.6 µL/min/mg
- EC50 [3]: 0.0362 µM
- Emax [3]: 169%
- EC50 [4]: 0.0043 µM
- Emax [4, 7]: 200%
- EC50 [5]: 0.054 µM
- Emax [5]: 71.3%

Compound: CCS(=O)(=O)c1ccc(C(CO)C(=O)Nc2cc(Cl)c(-c3ccc(S(=O)(=O)C4CC4)cc3)c(Cl)c2)cc1 (single isomer, unassigned) [Example 38, (S)—N-(2,6-dichloro-4′-(cyclopropylsulfonyl)-[1,1′-biphenyl]-4-yl)-2-(4-(ethylsulfonyl)phenyl)-3-hydroxypropionamide or (R)—N-(2,6-dichloro-4′-(cyclopropylsulfonyl)-[1,1′-biphenyl]-4-yl)-2-(4-(ethylsulfonyl)phenyl)-3-hydroxypropionamide]
- half-life [1]: > 2.42 h
- microsomal CLint [1]: < 9.6 µL/min/mg
- % Remaining (T = 60 min) [1]: 77.2%
- % Remaining (T = 60 min) [2]: 70.7%
- half-life [2]: 1.79 h
- microsomal CLint [2]: 12.9 µL/min/mg
- EC50 [3]: 0.0228 µM
- Emax [3]: 179%
- EC50 [4]: 0.0059 µM
- Emax [4, 7]: 190%
- EC50 [5]: 0.124 µM
- Emax [5]: 103%

Compound: CCS(=O)(=O)c1ccc(C(COC)C(=O)Nc2cc(Cl)c(-c3ccc(S(=O)(=O)C4CC4)cc3)c(Cl)c2)cc1 (single isomer, unassigned) [Example 40, (S)—N-(2,6-dichloro-4′-(cyclopropylsulfonyl)-[1,1′-biphenyl]-4-yl)-2-(4-(ethylsulfonyl)phenyl)-3-methoxypropionamide or (R)—N-(2,6-dichloro-4′-(cyclopropylsulfonyl)-[1,1′-biphenyl]-4-yl)-2-(4-(ethylsulfonyl)phenyl)-3-methoxypropionamide]
- half-life [1]: 2.4 h
- microsomal CLint [1]: 9.6 µL/min/mg
- % Remaining (T = 60 min) [1]: 71.1%
- % Remaining (T = 60 min) [2]: 71.8%
- half-life [2]: 1.95 h
- microsomal CLint [2]: 11.8 µL/min/mg
- EC50 [3]: 0.0258 µM
- Emax [3]: 224%
- EC50 [4]: 0.0099 µM
- Emax % [4, 7]: 199.3%
- EC50 [5]: 0.093 µM
- Emax [5]: 77.5%

Compound: CCS(=O)(=O)c1ccc(CC(=O)Nc2cc(Cl)c(-c3ccc(S(=O)(=O)C4CC4)cc3)c(Cl)c2)cc1 [Example 6]
- half-life [1]: > 2.42 h
- microsomal CLint [1]: < 9.6 µL/min/mg
- % Remaining (T = 60 min) [1]: 82%
- % Remaining (T = 60 min) [2]: 78.60%
- half-life [2]: > 2.42 h
- microsomal CLint [2]: < 9.6 µL/min/mg
- EC50 [3]: 0.0492 µM
- Emax [3]: 254%
- EC50 [4]: 0.0037 µM
- Emax [4, 7]: 171%
- EC50 [5]: 0.013 µM
- Emax [5]: 42.1%

Compound: CCS(=O)(=O)c1ccc(CC(=O)Nc2cc(Cl)c(-c3ccc(S(=O)(=O)C4CC4)cc3)c(Cl)c2)nc1 [Example 21, N-(2,6-Dichloro-4′-(cyclopropylsulfonyl)-1,1′-biphenyl-4-yl)-2-(5-(ethylsulfonyl)pyridin-2-yl)acetamide]
- half-life [1]: > 2.42 h
- microsomal CLint [1]: < 9.6 µL/min/mg
- % Remaining (T = 60 min) [1]: 79.6%
- % Remaining (T = 60 min) [2]: 56%
- half-life [2]: 1.33 h
- microsomal CLint [2]: 17.3 µL/min/mg
- CL_obs ([6]; IV 1 mg/kg, values marked **): 4.55** mL/min/kg
- AUC(0-t) ([6]; mouse, plasma, IV 1 mg/kg): 3630 ng·h/mL
- Cmax ([6]; mouse, plasma, IV 1 mg/kg): 716 ng/mL
- half-life ([6]; mouse, plasma, IV 1 mg/kg): 4.19 h
- Vd ([6]; mouse, plasma, IV 1 mg/kg, values marked *, read-out: Vss): 1.45 L/kg
- bioavailability ([6]; mouse, plasma, Po 5 mg/kg vs IV 1 mg/kg): 30.9%
- AUC(0-t) ([6]; mouse, plasma, Po 5 mg/kg): 5630 ng·h/mL
- Cmax ([6]; mouse, plasma, Po 5 mg/kg): 611 ng/mL
- half-life ([6]; mouse, plasma, Po 5 mg/kg): 3.83 h
- EC50 [3]: 0.183 µM
- Emax [3]: 297%
- EC50 [5]: 0.072 µM
- Emax [5]: 51.2%
